Results taken from patent US12312350B2, “Compounds for inhibiting NLRP3 and uses thereof” (Ventus Therapeutics U.S., Inc., priority 2021, dated 2025).

Biological target: NLRP3 (Homo sapiens, UniProt Q96P20)
Assay: Human whole blood (hWB) NLRP3 Assay
Experimental: Heparin lithium coated tubes were used to collect blood from volunteers. Blood samples were distributed on 96 well plates using 90 μl per well. […] Human whole blood was drawn from healthy volunteers after obtaining written informed consent.

NLRP3, sequence (Q96P20 whole entry): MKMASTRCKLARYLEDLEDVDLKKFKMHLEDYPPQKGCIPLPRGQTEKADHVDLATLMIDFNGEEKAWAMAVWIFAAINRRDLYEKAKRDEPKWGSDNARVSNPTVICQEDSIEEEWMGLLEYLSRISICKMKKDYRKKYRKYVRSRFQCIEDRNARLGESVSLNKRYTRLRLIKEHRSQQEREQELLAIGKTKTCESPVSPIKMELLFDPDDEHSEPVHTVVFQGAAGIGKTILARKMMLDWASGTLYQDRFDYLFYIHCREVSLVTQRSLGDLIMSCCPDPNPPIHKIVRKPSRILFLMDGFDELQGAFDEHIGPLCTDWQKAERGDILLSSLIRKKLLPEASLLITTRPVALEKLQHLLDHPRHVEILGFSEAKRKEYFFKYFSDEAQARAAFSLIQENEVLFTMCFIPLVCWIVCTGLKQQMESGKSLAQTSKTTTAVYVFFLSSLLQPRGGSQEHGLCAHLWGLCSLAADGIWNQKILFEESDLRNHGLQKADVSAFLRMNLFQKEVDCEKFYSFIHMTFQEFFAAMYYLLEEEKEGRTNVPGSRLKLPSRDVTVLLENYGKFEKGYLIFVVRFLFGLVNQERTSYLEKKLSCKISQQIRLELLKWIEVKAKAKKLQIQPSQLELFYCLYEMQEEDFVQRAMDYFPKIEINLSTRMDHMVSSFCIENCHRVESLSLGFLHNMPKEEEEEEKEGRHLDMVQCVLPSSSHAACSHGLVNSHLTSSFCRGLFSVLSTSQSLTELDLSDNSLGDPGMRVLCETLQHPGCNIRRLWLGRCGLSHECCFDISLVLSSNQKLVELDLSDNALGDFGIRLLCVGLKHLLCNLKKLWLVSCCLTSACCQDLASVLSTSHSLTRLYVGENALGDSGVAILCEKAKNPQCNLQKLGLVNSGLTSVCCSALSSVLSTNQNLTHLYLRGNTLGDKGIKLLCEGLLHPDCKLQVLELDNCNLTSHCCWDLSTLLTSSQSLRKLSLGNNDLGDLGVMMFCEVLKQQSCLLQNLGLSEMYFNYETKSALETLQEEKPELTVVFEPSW

- IC50: 42 µM
Compound: Clc1ccc(-c2nnc(NCC3CCCO3)c3ccncc23)cc1 (stereo not shown)
